Results taken from patent US20060159639A1, “Pseudo body odor composition and perfume composition for inhibiting body odor” (priority 2003, published 2006).
Like-named read-outs stand apart in the source and are kept apart here.

Assay: Suppression test of Experimental Example 1: masking and harmonizing effect in a cup, four expert panelists;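 as to harmonizing: score 1 means in harmony 0 indefinite and −1 not in harmony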
Method: In the present invention, the selection of the above component (I), component (II) and component (III) was carried out as follows. That is, one of the pseudo body odor compositions mentioned above and a target fragrance component were mixed and left at room temperature for 30 minutes. Thereafter, evaluations of the masking and harmonizing effects to the acid odor were carried out by four expert panelists.
After 30 minutes, a hole of about 1 cm in diameter was formed in the aluminum foil and the investigations of masking effect and the harmonizing effect were carried out according to following evaluation criteria by four expert panelists.
3: Excellent in the masking.
2: Substantially excellent in the masking.
1: Slightly sensible of the body odor (sweat odor and armpit odor).
0: Sensible of the body odor (sweat odor and armpit odor) (insufficient in the masking)

[1] = 200 μl pseudo body odor composition of Example 4 and 10 μl perfume on filter papers in sealed about 500 ml cup, after 30 minutes, four expert panelists, scale 0-3
[2] = 200 μl pseudo body odor composition of Example 4 and 10 μl perfume on filter papers in sealed about 500 ml cup, after 30 minutes, four expert panelists, scale −1 to 1

Row | Compound | Masking [1] | Harmonizing [2] | Harmonizing | Masking [points]
1 | c1ccc2[nH]ccc2c1 [Indole] | 1.5 points | −1 | – | –
2 | CC(=O)C1(C)CC2=C(CCCC2(C)C)CC1C (centres unmarked) [Iso E super, 7-acetyl-1,2,3,4,5,6,7,8-octahydro-1,1,6,7-tetramethyl naphthalene] | 1 | −1 | – | –
3 | CC(C)Cc1ccc2ncccc2c1 [Isobutyl quinoline] | 2 | 1 | – | –
4 | CC1=CC(C)C(C=O)C(C)C1 (centres unmarked) [Isocyclocitral, trimethyl cyclohexene carbalehyde] | 2.5 points | 1 | – | –
5 | CCCCCC1COCCC1OC(C)=O (centres unmarked) [Jasmal, 3-pentyl tetrahydropyranyl acetate] | 1 | −1 | – | –
6 | CC(=O)C(C)=C(C)C(C)C(C)(C)C (centres unmarked) [Koavone, ethylene tetramethyl heptanone] | – | – | 1 | 2.5
7 | CC(C)(O)CCCC1=CCC(C=O)CC1 (centres unmarked) [Kovanol, 4(3)-(4-hydroxy-4-methylpentyl)-3-cyclohexene-1-carboxy aldehyde] | 1 | 0 | – | –
8 | CC(C)=C[C@@H]1C[C@H](C)CCO1 [L-Rose oxide] | 3 | 1 | – | –
9 | CCC(=CCC1CC=C(C)C1(C)C)CO (centres unmarked) [Levosandol, 2-ethyl-4-(2,2,3-trimethyl-3-cyclopentene-1-yl)-2-butene-1-ol] | 2.5 points | 1 | – | –
10 | CC(C=O)Cc1ccc(C(C)(C)C)cc1 (stereo not drawn) [Lilial, p-tert-butyl-α-methyl hydrocinnamic aldehyde] | – | 0 | – | –
11 | C=CC(C)(O)CCC=C(C)C (centres unmarked) [Linalool] | 1 | 0 | – | –
12 | C=CC(C)(CCC=C(C)C)OC(C)=O (centres unmarked) [Linalyl acetate] | 1 | −1 | – | –
13 | CC(C)[C@@H]1CC[C@@H](C)CC1=O [Mentone] | 3 | 1 | – | –
14 | COC(=O)c1ccccc1N [Methyl anthranilate] | 2.5 points | 1 | – | –
15 | COC(=O)c1ccccc1 [Methyl benzoate] | 3 | 1 | – | –
16 | CCCCCC1C(=O)CCC1CC(=O)OC (centres unmarked) [Methyl dihydrojasmonate] | 2 | 1 | – | –
17 | CC(=O)CCC=C(C)C [Methyl heptenone] | 3 | 1 | – | –
18 | COC(=O)Cc1ccccc1 [Methyl phenyl acetate] | 2.5 points | 1 | – | –
19 | O=C1CCCCCCCCCCCC(=O)OCCO1 [Musk T, ethylene brassylate] | 0.5 points | −1 | – | –
20 | CC(C)[C@H]1CC[C@@H](CO)CC1 [Myol, cis-p-isopropylcyclohexyl methanol] | 1 | −1 | – | –
21 | CC(C)=CCCC1=CCC(C=O)CC1 (centres unmarked) [Myracaldehyde, 4-(4-methyl-3-pentenyl)-3-cyclohexene-1-carbaldehyde] | 1.5 points | 0 | – | –
22 | CCCCCCCCC=O [Nonanal] | 1.5 points | −1 | – | –

Row | Compound | Masking [1] | Harmonizing [2] | Harmonizing | Masking [points]
23 | CCCCCCCC=O [Octanal] | 3 | 1 | – | –
24 | O=C1CCCCCCCCOCCCCCCO1 [Oxalide, 10-oxa-16-hexadecanolide] | 0 | −1 | – | –
25 | O=CCc1ccccc1 [Phenyl acetoaldehyde] | 3 | 1 | – | –
26 | COC(Cc1ccccc1)OC [Phenylactoaldehyde dimethylacetal] | 2 | 1 | – | –
27 | CC(=O)OCCc1ccccc1 [Phenylethyl acetate] | 2.5 points | 1 | – | –
28 | OCCc1ccccc1 [Phenylethyl alcohol] | 2.5 points | 1 | – | –
29 | O=C(Cc1ccccc1)OCCc1ccccc1 [Phenylethyl phenyl acetate] | 2 | 0 | – | –
30 | O=C(OCCc1ccccc1)c1ccccc1O [Phenylethyl salicylate] | 1 | −1 | – | –
31 | CC(=O)CCc1ccc(O)cc1 [Raspberry ketone, 4-(4-hydroxyphenyl)-2-butanone] | 0.5 points | −1 | – | –
32 | CC(C)=CC1CC(C)CCO1 (centres unmarked) [Rose oxide] | 3 | 1 | – | –
33 | CC(=O)OC(c1ccccc1)C(Cl)(Cl)Cl (centres unmarked) [Rosephenone, trichloromethyl phenyl carbinyl acetate] | 1.5 points | 0 | – | –
34 | CC(=CCC1CC=C(C)C1(C)C)CO (centres unmarked) [Sandalmysore core, 2-methyl-4-(2,2,3-trimethyl-3-cyclopentene-1-yl)-2-butene-1-ol] | 2.5 points | 1 | – | –
35 | CC(=O)OC(C)c1ccccc1 (centres unmarked) [Styralyl acetate] | 3 | 1 | – | –
36 | CC(=O)OC(C)(C)C1CC=C(C)CC1 (centres unmarked) [Terpinyl acetate] | 2 | 0 | – | –
37 | CCC(C)CCCC(C)(C)O (centres unmarked) [Tetrahydromyrcenol] | 2 | 0 | – | –
38 | CCOC(=O)C1C(C)CCCC1(C)C (centres unmarked) [Thesaron, ethyl 2,2,6-trimethylcyclohexane carboxylate] | 2 | 0 | – | –
39 | Cc1ccc(C(C)C)c(O)c1 [Thymol] | 1 | −1 | – | –
40 | CC(=O)OC1CC2CC1C1CC=CC21 (centres unmarked) [Tricyclodecenyl acetate] | 1.5 points | 0 | – | –
41 | CCCCCCCCCCC=CC#N [Tridecene-2-nitrile] | 1.5 points | 0 | – | –
42 | CC1=CC(C)C(C=O)CC1 (centres unmarked) [Tripral, Dimethyl tetrahydrobenzaldehyde] | 3 | 1 | – | –
43 | CC(=O)C1=C(C)[C@@H]2C[C@@]3(C1)[C@H](C)CC[C@H]3C2(C)C [Woodyflor, acetylcedrene] | 1.5 points | −1 | – | –
44 | CC/C=C\CCOC(C)=O [cis-3-Hexenyl acetate] | 3 | 1 | – | –

Row | Compound | Masking [1] | Harmonizing [2] | Harmonizing | Masking [points]
45 | CC/C=C\CCOC(=O)c1ccccc1O [cis-3-Hexenyl salicylate] | 2 | 1 | – | –
46 | CC/C=C\CC1=C(C)CCC1=O [cis-Jasmone] | 1 | −1 | – | –
47 | CC(C)[C@@H]1CC[C@@H](C)C[C@H]1O [l-Menthol] | 1 | −1 | – | –
48 | COc1ccc(C)cc1 [p-Cresyl methyl ether] | 3 | 1 | – | –
49 | CC(C)(C)C1CCC(O)CC1 (centres unmarked) [p-tert-Butylcyclohexanol] | 1.5 points | 0 | – | –
50 | CC(=O)OC1CCC(C(C)(C)C)CC1 (centres unmarked) [p-tert-Butylcyclohexyl acetate] | 1.5 points | −1 | – | –
51 | CC(C)(O)Cc1ccccc1 [α,α-Dimethylphenylethyl, α,α-dimethyl phenylethyl alcohol] | 0.5 points | −1 | – | –
52 | C/C=C\C(=O)C1C(C)=CCCC1(C)C (stereo not drawn) [α-Damascone] | 2 | 0 | – | –
53 | C=CCCC(=O)C1=CCCC(C)(C)C1 [α-Dynascone, 1-(5,5-dimethyl-cyclohexene-1-yl)-4-pentene-1-one] | 3 | 1 | – | –
54 | CCCCCCC(C=O)=Cc1ccccc1 [α-Hexyl cinnamic aldehyde] | – | −1 | – | –
55 | C/C=C/C(=O)C1=C(C)CCCC1(C)C [β-Damascone] | 2 | 1 | – | –
56 | CC(=O)/C=C/C1=C(C)CCCC1(C)C [β-Ionone] | 1.5 points | −1 | – | –
57 | COc1ccc2ccccc2c1 [β-Naphthol methyl ether] | – | – | 1 | –
58 | CCCCCCC1CCC(=O)O1 (centres unmarked) [γ-Decalactone] | 2.5 points | 1 | – | –
59 | CC(=O)/C(C)=C/C1C(C)=CCCC1(C)C (centres unmarked) [γ-Methylionone] | 2 | 1 | – | –
60 | CCCCCC1CCC(=O)O1 (centres unmarked) [γ-Nonalactone] | 2.5 points | 1 | – | –
61 | CCCCCCCC1CCC(=O)O1 (centres unmarked) [γ-Undecalactone] | – | – | 1 | –
62 | C/C=C/C(=O)C1C(C)C=CCC1(C)C (centres unmarked) [δ-Damascone] | 1.5 points | 0 | – | –
63 | Methyl naphthyl ketone | 1.5 points | −1 | – | –
64 | Methylionone | 2 | 1 | – | –
65 | Methylionone soap | 2 | 1 | – | –
66 | isocamphyl cyclohexanol [Santalex] | 0.5 points | −1 | – | –
